Measured values as given in article PMC9440176, “Novel benzylidene benzofuranone analogues as potential anticancer agents: design, synthesis and in vitro evaluation based on CDK2 inhibition assays” (3 Biotech, 2022).

Key:
Assay type in all cases: cell-based, Human
HCT 116 cell lines = experiment: Cell cycle analysis (PI, FACS); conditions: 24 h
Protocol: The cell cycle analysis was followed where 1 × 10^6 cells were seeded and cultured for 24 h in a 6-well plate containing 2 ml of the media. Cells were then treated with desired concentrations of the given samples that were prepared in media and further incubated for another 24 h. Cells were then harvested and centrifuged at 2000 rpm for 5 min at room temperature and the supernatant was discarded carefully retaining the cell pellet. Cell pellet was then washed by resuspending in 2 ml of 1XPBS. The washing was repeated another time under the same conditions. Further, the supernatant was discarded retaining the pellet. Cells were then fixed by resuspending in 300 µL of Sheath fluid followed by the addition of 1 ml of chilled 70% ethanol drop by drop gently with continuous shaking and one more mL of the same at once. The cells were then stored at 4 °C overnight. Post fixing, the cells were centrifuged at 2000 rpm for 5 min washed twice with 2 ml of cold 1XPBS and suspended in 450 µL of sheath fluid containing 0.05 mg/ml PI (Propidium iodide), 0.05 mg/ml RNase A and incubated for 15 min in the dark (Kasibhatla et al. [2006]).The percentage of cells in various stages of cell cycle both in the treated as well as un-treated populations was determined using FACS Caliber (BD Biosciences, San Jose, CA).

HCT116 cells = experiment: Comet assay (DNA damage); conditions: 24 h, HCT-116
Protocol: To assess the genotoxicity effect of newly synthesized aurones, comet assay was performed on HCT -116 cell lines.
The agarose-coated glass slides were prepared according to the standard procedure (Tice et al. [2000]).
Compound selected—NISOA4.
Cell line used were- HCT116 cells (Human colorectal cancer cell lines).
HCT -116 (1 × 10^6) cells were treated with two different concentrations, 12.5, 25 μM of NISOA4 for 24 h.
The cells were centrifuged at 2000 rpm at 4 °C for 5 min followed by washing with PBS. Further, it was air dried and pellet was dissolved once again in PBS.
After keeping slides at 4 °C for 2 h, slides were removed from the lysis buffer and were placed side by side on a horizontal gel box near one end, sliding them as close together as possible.
The slides were placed on ice for 10 min and submerged in lysis buffer (2.5% NaCl, 100 mM EDTA, 10 mM Tris, 10% DMSO and 1% Troton X-100) at pH 10 at 4 °C for more than 1 h.
In the next step, the buffer reservoir was filled with freshly made electrophoresis buffer (pH > 13) until the liquid level was enough to cover the slides. […]
Slides were stained with 80 µL 1× Ethidium Bromide and left aside for 10 min followed by washing with PBS to remove the excess of stain. The slides were then scored immediately after washing.
The visualization of DNA damage was observed based on EtBr-staining technique using a 40× objective on a fluorescent microscope. The assessment of both qualitative as well as quantitative extent of DNA damage in the cells were carried out by measuring the length of DNA migration and the percentage of the migrated DNA using ImageJ software with open comet plug-in. Generally, 50 to 100 randomly selected cells are analysed per sample. Finally, the total tail amount was calculated. The final results are assessed by using the following parameters: (i)amount of migration per cell (ii) the number of cells with increased migration (iii) the extent of migration among damaged cells and (iv) cell viability (Końca et al. [2003]).

HCT 116 = experiment: MTT cytotoxicity assay on HCT 116; conditions: 24 h, read-out: Inhibition of cell proliferation, IC50, HCT 116
Protocol: The monolayer cell culture was trypsinized and the cell count was adjusted to 5.0 × 10^5 cells/ml using respective media containing 10% FBS. To each well of the 96-well microtiter plate, 100 µL of the diluted cell suspension (50,000cells/well) was added. After 24 h, when a partial monolayer was formed, the supernatant was flicked off, the monolayer was then washed once again with the medium and 100 µL of different test concentrations of test drugs were added on to the partial monolayer in microtiter plates. The plates were then incubated at 37 °C for 24 h in 5% CO2 atmosphere. After incubation, the test solutions in the wells were discarded and 100 µL of MTT (5 mg/10 ml of MTT in PBS) was added to each well. The plates were then incubated for 4 h at 37 °C in 5% CO2 atmosphere. The supernatant was then removed and 100 µL of DMSO was added and the plates were gently shaken to solubilize the formed formazan. The absorbance was measured using a microtiter plate reader at a wavelength of 590 nm. The percentage growth inhibition was thus calculated using the following formula and the concentration of the test drug required to inhibit the cell growth by 50% (IC50) values is generated from the dose–response curves for each one of the cell lines (Meerloo et al. [2011]).
The test compounds were screened for their in vitro cytotoxicity by MTT assay against two cancer cell lines, namely MCF-7, HCT-116 and normal epithelial kidney cells (Vero). Doxorubicin was used as a reference standard.

COc1ccc(/C=C2\Oc3c(c(OC)cc(OC)c3C3=CCN(C(C)C)CC3)C2=O)cc1OC [NISOA4]
percentage cell population GO/G1 phase (HCT 116 cell lines; high concentration (25)): 57.97%
percentage cell population G2/M phase (HCT 116 cell lines; low concentration (12.5)): 17.30%
percentage cell population GO/G1 phase (HCT 116 cell lines; low concentration (12.5)): 70.84%
percentage cell population S phase (HCT 116 cell lines; low concentration (12.5)): 10.61%
Olive moments (Mean ± SD) (HCT116 cells; 12.5 µM): 25.38
Olive moments (Mean ± SD) (HCT116 cells; 12.5 µM, listed as NISOA04): 25.384 ± 24.333
Olive moments (Mean ± SD) (HCT116 cells; 25 µM, listed as NISOA04): 73.582 ± 97.498
IC50 (HCT 116): 21.2 µM
